Results reported in patent publication US20240082222A1, “4-CHLORO-N-[2-[(4-CHLOROPHENYL)METHYL]-3-OXO-1,2,4-THIADIAZOL-5-YL]BENZAMIDE FOR USE IN MEDICINE” (Betagenon AB, priority 2021, published 2024).
“And” between values parts separate entries of the source, which are not always exact repeats. Equal values may be shown once. Where a name gives a salt, the structure may show the parent alone. Read-outs that look alike come from different tables or passages of the source.

Test: Pharmacokinetic study in humans, sodium salt tablets, multiple dose (Example 3)
Type: in vivo, human
Experimental: An open, randomised, parallel-group study was conducted to evaluate the exposure and safety of 4-chloro-N-[2-[(4-chlorophenyl)methyl]-3-oxo-1,2,4-thiadiazol-5-yl]benzamide sodium salt tablets in doses of 212.12 mg and 424.24 mg (equivalent to 200 mg and 400 mg doses of 4-chloro-N-[2-[(4-chlorophenyl)methyl]-3-oxo-1,2,4-thiadiazol-5-yl]benzamide) at steady state in healthy volunteers (hereafter referred to as subjects).
Each “400 mg” tablet contained 424.24 mg of a sodium salt of 4-chloro-N-[2-[(4-chlorophenyl)methyl]-3-oxo-1,2,4-thiadiazol-5-yl]benzamide (Compound of formula II) which corresponds to 400 mg of the parent compound 4-chloro-N-[2-[(4-chlorophenyl)methyl]-3-oxo-1,2,4-thiadiazol-5-yl]benzamide.
Twenty (20) subjects were randomised (1:1) to treatment with either 200 mg (1 tablet of 200 mg) or 400 mg (1 tablet of 400 mg) of the test substance.
A screening visit (Visit 1) was performed within 28 days before randomisation and the start of IMP administration. The subjects arrived at the research clinic on Day 1 (Visit 2), randomised, and received the first administration of the test substance (200 mg or 400 mg as randomised).
The subjects returned to the clinic in the morning of Day 2 (Visit 3) for pre-dose PK sampling and subsequent administration of the test substance.
Before leaving the clinic, the subjects were provided with the test substance for 18 days once daily self-administration at home (Day 3 to Day 20).
After 18 days of home-based self-administration of the test substance, the subjects returned to the clinic in the morning of Day 21 (Visit 5) for pre-dose PK sampling and subsequent administration of the last dose of the test substance. The subjects remained at the clinic for at least 8 hours post-dose for safety assessments and additional PK sampling. In the morning of Day 22 (Visit 6), the subjects came for a last visit to the clinic for a final PK sample 24 hours after the last dose.
Venous blood samples (approximately 5 mL) for the determination of plasma concentrations of 4-chloro-N-[2-[(4-chlorophenyl)methyl]-3-oxo-1,2,4-thiadiazol-5-yl]benzamide after administration of the test substance were collected through an indwelling venous catheter on Days 2, 21 and 22.
The blood samples were collected in pre-labelled Li-Heparin tubes. All the collected blood samples were be centrifuged at 1500 G for 10 minutes to separate plasma within 60 minutes from the sample is drawn. The separated plasma from each blood sample was be divided into 2 aliquots in pre-labelled polypropylene cryotubes (A and B samples, approximately 750 μL in each tube) and frozen at <−70° C.
Samples for determination of plasma concentrations of 4-chloro-N-[2-[(4-chlorophenyl)methyl]-3-oxo-1,2,4-thiadiazol-5-yl]benzamide were analysed by Lablytica Life Science AB, Uppsala, Sweden by means of a validated LS-MS/MS method.
The data of plasma concentration to respective time points for the analyte (4-chloro-N-[2-[(4-chlorophenyl)methyl]-3-oxo-1,2,4-thiadiazol-5-yl]benzamide) were used for the pharmacokinetic analysis. Pharmacokinetic analysis was performed using non-compartmental analysis (NCA) module of Phoenix WinNonlin 8.1 software to determine the following pharmacokinetic parameters after multiple dose administration of test substance.
Primary endpoint: • Cmax, AUC0-last, Tmax at steady state Day 21 in each dose group.

[1] = 200 mg Dose Group, tablet once daily, Day 21, individual subjects, listed as O304 Na salt
[2] = 212 mg sodium salt in tablet form
[3] = 400 mg Dose Group, tablet once daily, Day 21, individual subjects, listed as O304 Na salt

- Tlast (200 mg Dose Group, tablet once daily, Day 21, Mean): 24.01 h
- Tlast (200 mg Dose Group, tablet once daily, Day 21, Median): 24.0 h
- Tlast [1]: 24.0 h (8×) and 24.1 h
- Tmax [1]: 24.0 h and 0.00 h and 2.00 h and 4.00 h
- increase in systemic accumulation from Day 1 to Day 21 [2]: approximately seven-fold
- increase in systemic exposure, tablet compared to capsules containing 200 mg [2]: up to two-fold
- Tlast (400 mg Dose Group, tablet once daily, Day 21, Mean): 24.07 h
- Tlast (400 mg Dose Group, tablet once daily, Day 21, Median): 24.0 h
- Tlast [3]: 24.0 h (6×) and 24.4 h and 24.1 h (2×)
- increase in systemic accumulation from Day 1 to Day 21 (424 mg sodium salt in tablet form): approximately five-fold
- AUC(0-t) (human, plasma, oral, 200 mg, 200 mg Dose Group, tablet once daily, Day 21, Mean): 1940 µg·h/mL
- concentration at 24 h (human, plasma, oral, 200 mg, 200 mg Dose Group, tablet once daily, Day 21, Mean, read-out: Clast): 80.4 µg/mL
- Cmax (human, plasma, oral, 200 mg, 200 mg Dose Group, tablet once daily, Day 21, Mean, read-out: Cmax): 86.8 µg/mL
- Tmax (human, plasma, oral, 200 mg, 200 mg Dose Group, tablet once daily, Day 21, Mean, read-out: Tmax): 10.9 h
- AUC(0-t) (human, plasma, oral, 200 mg, 200 mg Dose Group, tablet once daily, Day 21, Median): 1720 µg·h/mL
- concentration at 24 h (human, plasma, oral, 200 mg, 200 mg Dose Group, tablet once daily, Day 21, Median, read-out: Clast): 76.9 µg/mL
- Cmax (human, plasma, oral, 200 mg, 200 mg Dose Group, tablet once daily, Day 21, Median, read-out: Cmax): 77.1 µg/mL
- Tmax (human, plasma, oral, 200 mg, 200 mg Dose Group, tablet once daily, Day 21, Median, read-out: Tmax): 8 h
- concentration at 24 h (human, plasma, oral, 200 mg, 200 mg dose group (212.12 mg sodium salt tablet once daily), 24 h after dose of Day 1, read-out: Clast at 24 hours, Mean): 11.4 µg/mL
- concentration at 24 h (human, plasma, oral, 200 mg, 200 mg dose group (212.12 mg sodium salt tablet once daily), 24 h after dose of Day 1, read-out: Clast at 24 hours, Median): 11.2 µg/mL
- concentration at 24 h (human, plasma, oral, 200 mg, 200 mg dose group (212.12 mg sodium salt tablet once daily), 24 h after dose of Day 21, read-out: Clast at 24 hours, Mean): 80.4 µg/mL
- concentration at 24 h (human, plasma, oral, 200 mg, 200 mg dose group (212.12 mg sodium salt tablet once daily), 24 h after dose of Day 21, read-out: Clast at 24 hours, Median): 76.9 µg/mL
- AUC(0-t) (human, plasma, oral, 400 mg, 400 mg Dose Group, tablet once daily, Day 21, Mean): 3110 µg·h/mL
- concentration at 24 h (human, plasma, oral, 400 mg, 400 mg Dose Group, tablet once daily, Day 21, Mean, read-out: Clast): 129 µg/mL
- Cmax (human, plasma, oral, 400 mg, 400 mg Dose Group, tablet once daily, Day 21, Mean, read-out: Cmax): 138 µg/mL
- Tmax (human, plasma, oral, 400 mg, 400 mg Dose Group, tablet once daily, Day 21, Mean, read-out: Tmax): 11.2 h
- AUC(0-t) (human, plasma, oral, 400 mg, 400 mg Dose Group, tablet once daily, Day 21, Median): 2930 µg·h/mL
- concentration at 24 h (human, plasma, oral, 400 mg, 400 mg Dose Group, tablet once daily, Day 21, Median, read-out: Clast): 116 µg/mL
- Cmax (human, plasma, oral, 400 mg, 400 mg Dose Group, tablet once daily, Day 21, Median, read-out: Cmax): 132 µg/mL
- Tmax (human, plasma, oral, 400 mg, 400 mg Dose Group, tablet once daily, Day 21, Median, read-out: Tmax): 4.02 h
- AUC(0-t) (human, plasma, oral, 400 mg, 400 mg Dose Group, tablet once daily, Day 21, individual subjects): 2930 µg·h/mL
- Cmax (human, plasma, oral, 400 mg, 400 mg Dose Group, tablet once daily, Day 21, individual subjects, read-out: Cmax): 132 µg/mL
- concentration at 24 h (human, plasma, oral, 400 mg, 400 mg dose group (424.24 mg sodium salt tablet once daily), 24 h after dose of Day 1, read-out: Clast at 24 hours, Mean): 24.9 µg/mL
- concentration at 24 h (human, plasma, oral, 400 mg, 400 mg dose group (424.24 mg sodium salt tablet once daily), 24 h after dose of Day 1, read-out: Clast at 24 hours, Median): 21.5 µg/mL
- concentration at 24 h (human, plasma, oral, 400 mg, 400 mg dose group (424.24 mg sodium salt tablet once daily), 24 h after dose of Day 21, read-out: Clast at 24 hours, Mean): 129 µg/mL
- concentration at 24 h (human, plasma, oral, 400 mg, 400 mg dose group (424.24 mg sodium salt tablet once daily), 24 h after dose of Day 21, read-out: Clast at 24 hours, Median): 116 µg/mL
- peak blood plasma concentration (repeated dosing of 212 mg in the form of a tablet): ≥ 85 µg/mL
- accumulation in the blood plasma after repeat dosing (tablets, once daily): substantial accumulation
Compound: O=C(Nc1nc(=O)n(Cc2ccc(Cl)cc2)s1)c1ccc(Cl)cc1 [Compound of formula II, sodium salt of 4-chloro-N-[2-[(4-chlorophenyl)methyl]-3-oxo-1,2,4-thiadiazol-5-yl]benzamide]
- Clast [1]: 80.1 µg/mL and 109 µg/mL and 144 µg/mL and 51.7 µg/mL and 76.9 µg/mL and 62.3 µg/mL and 65.1 µg/mL and 81.3 µg/mL and 53.4 µg/mL
- AUClast [3]: 4790 µg·h/mL and 3600 µg·h/mL and 2450 µg·h/mL and 2950 µg·h/mL and 3550 µg·h/mL and 2800 µg·h/mL and 2460 µg·h/mL
- Clast [3]: 116 µg/mL and 201 µg/mL and 151 µg/mL and 96.7 µg/mL and 135 µg/mL and 144 µg/mL and 111 µg/mL and 106 µg/mL and 100 µg/mL
- Cmax [3]: 201 µg/mL and 169 µg/mL and 106 µg/mL and 135 µg/mL and 168 µg/mL and 124 µg/mL and 105 µg/mL
- Tmax [3]: 24.4 h and 4.00 h and 8.02 h and 24.1 h and 24.0 h
